We go through one compound from patent US20250303006A1, “BIOCOMPATIBLE ANTISEPTIC COMPOSITION CONTAINING 9-HYDROXYCALABAXANTHONE AND/OR RELATED XANTHONES” (UNIVERSITAT DE LES ILLES BALEARS, priority 2022, published 2025).

One test concerns P. gingivalis. Nature of the test: P. gingivalis culture and proliferation assay (growth rate, live/dead ratio). It counts as cell-based, Porphyromonas gingivalis. The settings on record: 0.002% HCX, 10 h. How it is done: Bacterium P. gingivalis (ATCC 33277TM, Manassas, VA) was cultured in brain heart infusion (BHI) broth (Scharlab, Barcelona, Spain), supplemented with 0.5 g/l of L-cysteine hydrochloride (Thermo Fisher Scientific), 5.0 mg/I of hemin (Thermo Fisher Scientific), and 1.0 mg/I of vitamin K (Thermo Fisher Scientific) in anaerobic conditions (10% H2, 10% CO2, and 80% N2) achieved with an anaerobiosis sachet and jar (Oxoid Anaerogen™, Thermo Fisher Scientific) at 37° C. for 24-72 h.
Bacteria P. gingivalis were cultured from existing frozen bacteria in BHI broth. After one night of incubation, 1 ml of bacterial suspension (˜3×10^8 bacteria/ml) was treated with different concentrations of HCX (0.00002, 0.0002, 0.002%) for 10 hours in anaerobic conditions (10% H2, 10% CO2, and 80% N2) at 37° C. At regular intervals (0 h and 10 h), optical density (OD) was measured at 600 nm to determine bacterial proliferation (PowerWave Ht, Biotekinstruments, Winooski, VT). […] The proportion of living bacteria/dead bacteria was determined using the LIVE/DEAD BacLight bacterial viability kit (Invitrogen, Thermo Fisher Scientific, Waltham, MA, USA), following the manufacturer's instructions.
Two different concentrations of HA formulated with HCX (0.025 and 0.05%) were used in the present study. […]

The next test concerns S. mutans. Nature of the test: S. mutans culture and proliferation assay. The format is cell-based, Streptococcus mutans. Particulars: 5 h. As to the method: S. mutans CECT 479 (obtained from The Spanish Type Culture Collection (CECT), University of Valencia) was grown from frozen stocks in BHI broth (Scharlab), at 37° C. under aerobic conditions in an orbital shaker (180 rpm). After overnight incubation, 1 mL of bacterial suspensions were incubated with different concentrations of CHX (0.01, 0.005, 0.003, 0.001, 0.0001%) and HCX (0.003, 0.002, 0.001, 0.0002, 0.00002%) for 5 hours at 37° C. under aerobic conditions in an orbital shaker (180 rpm). Bacterial suspension without treatment served as negative control (C−). The optical density (OD) was measured at 600 nm at 0 h and 5 h to determine bacterial proliferation (PowerWave Ht). The bacterial growth rate (μ) was calculated during the exponential growth phase following the equation ln ODt−ln OD0=μ×(t−t0) (n=3). The live/Dead ratio of bacteria was determined using the LIVE/DEAD BacLight bacterial viability kit (Invitrogen), following the manufacturer's instructions. The assays were carried out in triplicate, with two replicates at each condition (n=3).
The bacteria S. mutans was cultured and treated with different commercial periodontal gels and HA formulated with 0.1%, 0.05%, and 0.01% HCX and aMG for 24 h. The gels were tested at a concentration of 5% (v/v), and the experiment was run like in experiment 8 of section 8.1.

In the next test the test system is P. aeruginosa. Nature of the test: P. aeruginosa culture and proliferation assay. The format is cell-based, Pseudomonas aeruginosa. Particulars: 0.003% HCX, 3 h. How it is done:
P. aeruginosa ATCC 27853 was grown from frozen stocks in LB broth (Scharlab), at 37° C. under aerobic conditions in an orbital shaker (180 rpm). After overnight incubation, 1 mL of bacterial suspensions were incubated with different concentrations of CHX (0.01, 0.005, 0.003, 0.001, 0.0001%) and HCX (0.003, 0.002, 0.001, 0.0002, 0.00002%) for 3 hours at 37° C. under aerobic conditions in an orbital shaker (180 rpm). Bacterial suspension without treatment served as negative control (C−). The optical density (OD) was measured at 600 nm at 0 h and 3 h to determine bacterial proliferation (PowerWave Ht). The bacterial growth rate (μ) was calculated during the exponential growth phase following the equation ln ODt−ln OD0=μ×(t−t0) (n=3).

The subject of a further test is C. acnes. Briefly: C. acnes culture and proliferation assay. The settings on record: 0.0002% HCX, 24 h. The format is cell-based, Cutibacterium acnes. As to the method:
C. acnes 5684 (CECT, Valencia, Spain) was grown on Tryptic soy broth (TSB) (Scharlab), supplemented with 0.5 g/I L-Cysteine hydrochloride (Thermo Fisher Scientific), 1.0 mg/I hemin (Thermo Fisher Scientific) and 5.0 mg/I glucose (Scharlab) under anaerobic conditions (10% H2, 10% CO2 and 80% N2) achieved with an Oxoid Anaerogen™ sachet (Thermo Fisher Scientific) at 37° C. for 48 h. After overnight incubation, 1 mL of C. acnes was incubated with different concentrations of CHX (0.01, 0.005, 0.003, 0.001%) and HCX (0.003, 0.002, 0.001, 0.0002%) for 24 hours at 37° C. under anaerobic conditions achieved with an Oxoid Anaerogen™ sachet. Bacterial suspension without treatment served as negative control (C−). The optical density (OD) was measured at 600 nm at 0 h and 24 h to determine bacterial proliferation (PowerWave Ht). The bacterial growth rate (μ) was calculated during the exponential growth phase following the equation ln ODt−ln OD0=μ×(t−t0) (n=4). The live/Dead ratio of bacteria was determined using the LIVE/DEAD BacLight bacterial viability kit (Invitrogen), following the manufacturer's instructions. The assays were carried out in triplicate.

As for `COc1c(O)cc2oc3cc4c(c(O)c3c(=O)c2c1CC=C(C)C)C=CC(C)(C)O4` [HCX, 9-hydroxycalabaxanthone], the bacteria eliminated with P. gingivalis came out at 100%; with S. mutans (0.0002% HCX), 70%; in the test on S. mutans (0.001% HCX) it was 90%; in the test with P. aeruginosa, 32%; in the test on C. acnes, 96%.
